Assay results published in patent US20250059218A1, “ENPP1 Inhibitors and Methods of Modulating Immune Response” (The Board of Trustees of the Leland Stanford Junior …, priority 2019, published 2025).
Like-named read-outs stand apart in the source and are kept apart here.

Assays:
mouse ENPP1 = mouse ENPP1 (Mus musculus (Mouse), UniProt P06802); experiment: ENPP1 enzyme activity assay using cGAMP as substrate (luciferase detection of AMP); type: biochemical
CD14+ PBMCs = experiment: Stimulation of CD14+ PBMCs with extracellular cGAMP (IFNB1 RT-qPCR); type: cell-based, human; conditions: submicromolar soluble cGAMP
4T1-Luc tumors = experiment: 4T1-Luc tumor mouse model (tumor volume, survival)
[1] = ENPP1 enzyme activity, second activity table (titled TABLE 2, Compounds; column without head), read-out: IC50

mouse ENPP1, sequence (P06802 85-906): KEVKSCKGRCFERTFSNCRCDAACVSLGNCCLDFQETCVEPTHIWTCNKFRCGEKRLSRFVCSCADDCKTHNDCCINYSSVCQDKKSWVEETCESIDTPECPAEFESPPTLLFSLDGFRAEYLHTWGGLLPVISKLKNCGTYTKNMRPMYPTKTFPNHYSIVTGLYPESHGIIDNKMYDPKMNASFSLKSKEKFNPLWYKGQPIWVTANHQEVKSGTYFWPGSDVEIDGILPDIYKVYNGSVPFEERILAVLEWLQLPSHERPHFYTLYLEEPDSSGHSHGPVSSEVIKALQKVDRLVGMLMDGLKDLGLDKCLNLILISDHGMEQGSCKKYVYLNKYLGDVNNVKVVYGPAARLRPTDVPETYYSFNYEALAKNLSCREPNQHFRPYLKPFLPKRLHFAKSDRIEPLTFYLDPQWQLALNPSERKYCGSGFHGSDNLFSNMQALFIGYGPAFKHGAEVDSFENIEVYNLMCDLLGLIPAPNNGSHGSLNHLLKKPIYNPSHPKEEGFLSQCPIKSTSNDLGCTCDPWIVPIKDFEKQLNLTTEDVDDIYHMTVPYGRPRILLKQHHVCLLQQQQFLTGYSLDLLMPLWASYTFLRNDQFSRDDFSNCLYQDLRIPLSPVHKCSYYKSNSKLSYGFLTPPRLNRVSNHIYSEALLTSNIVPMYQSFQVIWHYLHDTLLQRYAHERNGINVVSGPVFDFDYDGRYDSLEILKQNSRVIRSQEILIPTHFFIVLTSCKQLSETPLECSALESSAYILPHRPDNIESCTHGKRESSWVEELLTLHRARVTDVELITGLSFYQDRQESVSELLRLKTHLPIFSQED

Row | Structure (SMILES) | IC50 (mouse ENPP1; [1]) [nM] | IC50 (mouse ENPP1) [nM] | also measured
1 | COc1cc2ncc(C#N)c(N3CCC(CCOP(O)(O)=S)CC3)c2cc1OC [Compounds 202] | – | 50 to 100 | –
2 | COc1cc2ncnc(NCc3ccc(OP(O)(O)=S)cc3)c2cc1OC [Compound 7] | – | 50 to 100 | –
3 | COc1cc2ncnc(Nc3ccc(CP(=O)(O)O)cc3)c2cc1OC [Compound 3] | – | – | IC50 (mouse ENPP1; ENPP1 enzyme activity, Table 4, read-out: IC50): 50 to 100 nM
4 | Nc1nc2c(ncn2[C@@H]2O[C@@H]3COP(=O)(O)O[C@H]4[C@@H](O)[C@H](n5cnc6c(N)ncnc65)O[C@@H]4COP(=O)(O)O[C@@H]2[C@@H]3O)c(=O)[nH]1 [cGAMP, cyclic guanosine monophosphate-adenosine monophosphate] | – | – | IFNB1 response (CD14+ PBMCs): upregulating IFNB1; effect over IR treatment (4T1-Luc tumors; 20 Gy IR + intratumoral 10 μg cGAMP alone): had no effect over IR treatment; mice cured (4T1-Luc tumors; ENPP1−/− 4T1-Luc tumors, 20 Gy IR + intratumoral cGAMP, no anti-CTLA-4): 30%

Further lines, with some results ahead:

Row | IC50 (mouse ENPP1; [1]) [nM] | Structure (SMILES) | IC50 (mouse ENPP1) [nM] | also measured
5 | > 100 | COc1cccc2c(N3CCC(CCP(=O)(O)O)CC3)c(C#N)c(/C=C\c3cccnc3)nc12 [Compounds 206] | – | –
6 | 50 to 100 | COc1ccc2ncc(C#N)c(N3CCC(CCP(=O)(O)O)CC3)c2c1 [Compounds 44] | – | –
